Where “and” joins values, the source holds several entries; their conditions need not be identical. Equal values may be shown once. Read-outs that look alike come from different tables or passages of the source.
Tests used:
[1] = mouse, 33 mg/kg/day; Ingbar et al.; cited from earlier work
diet-induced obese mice [2] = assay: Very low dose oral and subcutaneous weight loss study in diet-induced obese mice (Examples 3 and 4); format: in vivo, C57BL/6NTac mice
Excerpt: (§1) Mice were divided into two groups, a diet-induced obese group and a lean group. For the diet-induced obese group, fifteen week-old C57BL/6NTac mice, maintained prior to and during the study on a diet containing 60% fat on a kilocalorie basis, were further separated into six groups, eight animals per group. Average body weight of these diet-induced obese mice was 38 g at the start of the study. For the lean group, fifteen week-old C57BLI6NTac mice, maintained on a diet containing 4.3% by weight fat prior to and during the study, were further separated into two groups, eight animals per group. Average body weight of these lean mice was 28 g at the start of the study.
(§2) Fumagillin was administered to three of the diet-induced obese mice groups by oral gavage as a solution in 10% DMSO, at doses of 0.1 mg/kg/day, 0.3 mg/kg/day, and 1 mg/kg/day respectively. A fourth diet-induced obese mice group received the 10% DMSO vehicle only by oral gavage. A group of lean mice was administered fumagillin by oral gavage as a solution in 10% DMSO at a dose of 1 mg/kg/day. Treatments were administered daily for 11 days.
as §1, with “A study was undertaken to analyze whether oral administration compared to subcutaneous administration of fumagillin affected weight loss in diet-induced obese mice. Mice” for “Mice”
Fumagillin was administered to three of the diet-induced obese groups by oral gavage as a solution in 10% DMSO, at doses of 0.1 mg/kg/day, 0.3 mg/kg/day, and 1 mg/kg/day respectively. A fourth diet-induced obese group received the 10% DMSO vehicle-only by oral gavage. A fifth diet-induced obese group received fumagillin at a 1 mg/kg/day dose by subcutaneous injection of a solution in 10% DMSO. A sixth diet-induced obese group received the 10% DMSO vehicle only by subcutaneous injection. A group of lean mice was administered fumagillin by oral gavage as a solution in 10% DMSO at a dose of 1 mg/kg/day.
Another group of lean mice was administered fumagillin by subcutaneous injection of a solution in 10% DMSO at a dose of 1 mg/kg/day. Treatments were administered daily for 14 days.

lean mice = assay: Oral and subcutaneous fumagillin in lean mice (Examples 3 and 4); format: in vivo, C57BLI6NTac mice
Excerpt: as §1, §2
A study was undertaken to analyze whether oral administration compared to subcutaneous administration of fumagillin affected weight loss in diet-induced obese mice. Mice were divided into two groups, a diet-induced obese group and a lean group. […]

blood cells = assay: Complete blood analysis (CBC) after oral fumagillin in lean rats (Example 9); format: in vivo, Sprague-Dawley rats; details: for lymphocyte count / neutrophil count / white blood cell count: 3 mg/kg oral gavage on day 3 and day 9
Method: Male lean Sprague-Dawley rats were divided into two groups, ten rats per group. One group of rats received fumagillin by oral gavage as a solution in 10% DMSO, at dose of 3 mg/kg. Administration of fumagillin to this group of rats was performed on day 3 and day 9 of the study. The other group of rats was administered by oral gavage a solution of 10% DMSO/90% water (vehicle-only). Administration of vehicle to this group of rats was performed on day 3 and day 9 of the study. Blood samples were collected daily for complete blood analysis (CBC).

[3] = Plasma concentration after intraduodenal administration (Example 8); format: in vivo, Sprague-Dawley rats; details: 30 mg/kg intraduodenal; for ZGN-201 Conc. in Rat Plasma, individual animals: listed as ZGN-201
Method: A study was undertaken to investigate absorption of fumagillin from the small intestine. Five male Sprague-Dawley rats were fasted, and were then catheterized into the duodenum, 1.5 centimeters below the stomach. The stomachs of these rats were tied off so administration would bypass the stomach of each rat. Rats were then infused with 30 mg/kg of fumagillin and an equal volume of Trypan blue (Invitrogen). To determine absorption of fumagillin into the small intestine, blood was collected from the jugular vein of each rat at time points of 0 min., 5 min. (graphically illustrated as 0.083), 15 min. (graphically illustrated as 0.25), 30 min. (graphically illustrated as 0.5), 2 hrs, and 8 hrs.

[4] = humans, 30 mg/day to 60 mg/day; Molina et al., Seneca; cited from earlier work
diet-induced obese mice [5] = assay: 47-day weight and food intake study in diet-induced obese mice (Example 5); format: in vivo, C57BL/6NTac mice; details: 1 mg/kg/day oral gavage
Method: Mice were divided into two groups, a diet-induced obese group and a lean group (control). For the diet-induced obese group, C57BL/6NTac mice maintained prior to and during the study on a diet containing 60% fat on a kilocalorie basis were further divided into two groups, fifteen mice per group. Average body weight of these diet-induced obese mice was 40 g at the start of the study. […] Daily food consumption was also recorded.
Fumagillin was administered to one of the diet-induced obese mice groups by oral gavage as a solution in 10% DMSO, at dose of 1 mg/kg/day, for 47 days. The other diet-induced obese mice group and the lean mice group were not administered anything.

## CO[C@@H]1[C@H](OC(=O)/C=C/C=C/C=C/C=C/C(=O)O)CC[C@]2(CO2)[C@H]1[C@@]1(C)O[C@@H]1CC=C(C)C [fumagillin]
[1]
  side-effect of administration (wasting): severe weight loss
diet-induced obese mice [2]; 0.1 mg/kg/day oral gavage, end of study (14 days)
  weight loss as a percentage of pre-study weight: 7%
diet-induced obese mice [2]; 0.3 mg/kg/day oral gavage, end of study (14 days)
  weight loss as a percentage of pre-study weight: 11%
diet-induced obese mice [2]; 1 mg/kg/day oral gavage, end of study (14 days)
  weight loss as a percentage of pre-study weight: 12%
diet-induced obese mice [2]; 1 mg/kg/day subcutaneous injection, 14 days, end of study
  weight loss as a percentage of pre-study weight: 7%
diet-induced obese mice [2]; oral gavage, weight loss, not identified, concluded
  non-effective dose: below 0.1 mg/kg/day
Lean mice; 1 mg/kg/day oral gavage
  weight change: no weight change
Lean mice; 1 mg/kg/day subcutaneous
  weight loss: no weight loss
Blood cells; day 3
  lymphocyte count: approximately 4000 lymphocytes/4
  neutrophil count: approximately 650 neutrophils/4
  white blood cell count: approximately 5000 white blood cells/4
Blood cells; day 9
  lymphocyte count: approximately 3900 lymphocytes/4
  neutrophil count: approximately 1100 neutrophils/4
  white blood cell count: approximately 5200 white blood cells/4
Blood cells; 3 mg/kg oral gavage, rats
  development of a blood disorder: do not result in development of a blood disorder
Blood cells; 3 mg/kg oral gavage, statistical analysis
  variation vs vehicle-only rats in white blood cell, lymphocyte and neutrophil count: not statistically significant
[3]; male rats 1, 3, 4, 5, time point 0 hr
  ZGN-201 Conc. in Rat Plasma, individual animals: BQL (BQL: 1 ng/mL)
[3]; male rats 1, 3, 4, 5, time point 0.083 hr
  ZGN-201 Conc. in Rat Plasma, individual animals: 30286.5 ng/mL and 30532.1 ng/mL and 31057 ng/mL
[3]; male rats 1, 3, 4, 5, time point 0.25 hr
  ZGN-201 Conc. in Rat Plasma, individual animals: 9275.7 ng/mL and 9903.7 ng/mL and 13584.2 ng/mL
[3]; male rats 1, 3, 4, 5, time point 0.5 hr
  ZGN-201 Conc. in Rat Plasma, individual animals: 1104.6 ng/mL and 2295 ng/mL and 1109.8 ng/mL and 1225.1 ng/mL
[3]; male rats 1, 3, 4, 5, time point 2 hr
  ZGN-201 Conc. in Rat Plasma, individual animals: 95 ng/mL and 66.5 ng/mL and 79.3 ng/mL and 27.5 ng/mL
[3]; male rats 1, 3, 4, 5, time point 8 hr
  ZGN-201 Conc. in Rat Plasma, individual animals: 9 ng/mL and 6.9 ng/mL and 6.8 ng/mL
[3]; rats
  absorption profile compared to absorption through the stomach: large absorption profile in the small intestine
[3]; male, Sprague-Dawley, rat, plasma, other: intraduodenal, 30 mg/kg, male rats 1, 3, 4, 5, time point 0 hr, read-out: ZGN-201 Conc. in Rat Plasma, individual animals
  concentration at 0 hr: 1 ng/mL
[3]; male, Sprague-Dawley, rat, plasma, other: intraduodenal, 30 mg/kg, male rats 1, 3, 4, 5, time point 0.083 hr, read-out: ZGN-201 Conc. in Rat Plasma, individual animals
  concentration at 0.083 hr: 31400 ng/mL
[3]; male, Sprague-Dawley, rat, plasma, other: intraduodenal, 30 mg/kg, male rats 1, 3, 4, 5, time point 0.25 hr, read-out: ZGN-201 Conc. in Rat Plasma, individual animals
  concentration at 0.25 hr: 7710 ng/mL
[3]; male, Sprague-Dawley, rat, plasma, other: intraduodenal, 30 mg/kg, male rats 1, 3, 4, 5, time point 8 hr, read-out: ZGN-201 Conc. in Rat Plasma, individual animals
  concentration at 8 hr: 11.9 ng/mL
[3]; male, Sprague-Dawley, rat, plasma, other: intraduodenal, 30 mg/kg, male rats, time point 0.083 hr, read-out: ZGN-201 Conc. in Rat Plasma, Mean
  concentration at 0.083 hr: 25100 ng/mL
[3]; male, Sprague-Dawley, rat, plasma, other: intraduodenal, 30 mg/kg, male rats, time point 0.25 hr, read-out: ZGN-201 Conc. in Rat Plasma, Mean
  concentration at 0.25 hr: 9200 ng/mL
[3]; male, Sprague-Dawley, rat, plasma, other: intraduodenal, 30 mg/kg, male rats, time point 0.5 hr, read-out: ZGN-201 Conc. in Rat Plasma, Mean
  concentration at 0.5 hr: 1730 ng/mL
[3]; male, Sprague-Dawley, rat, plasma, other: intraduodenal, 30 mg/kg, male rats, time point 2 hr, read-out: ZGN-201 Conc. in Rat Plasma, Mean
  concentration at 2 hr: 506 ng/mL
[3]; male, Sprague-Dawley, rat, plasma, other: intraduodenal, 30 mg/kg, male rats, time point 8 hr, read-out: ZGN-201 Conc. in Rat Plasma, Mean
  concentration at 8 hr: 20 ng/mL
[3]; male, Sprague-Dawley, rat, plasma, other: intraduodenal, 30 mg/kg, rats, 5 min. from administration (time point 0.083), read-out: amount of absorption by the small intestine
  concentration at 5 min: 3000 ng/mL
[4]
  blood disorders developed by patients: thrombocytopenia, leukopenia, and neutropenia
diet-induced obese mice [5]; 47 days, weight plateaued at weight of lean mice
  effect on lean body mass: without substantial reduction of lean body mass
diet-induced obese mice [5]; day seventeen (from 40 g on day 1)
  average weight: 32 g
diet-induced obese mice [5]; maintained through day 47
  average weight: approximately 32 g
diet-induced obese mice [5]; throughout 47 days
  amount of food consumed: 2.2 g/day

From patent US9925166B2, “Methods of treating an overweight or obese subject” (Zafgen, Inc., priority 2008, dated 2018)
